Test results: patent publication US6407076B1, “Adenosine analogues and related method of treatment” (SmithKline Beecham Corporation, priority 1997, dated 2002)

Columns and labels:
[1] = target: T1, human adenosine A1 receptor (Homo sapiens, UniProt P30542); test: Reporter gene (CRE/SPAP) agonist assay in CHO cells, adenosine A1 receptor; type: cell-based; settings: CHO cells with human A1 receptor; inhibition of forskolin-stimulated SPAP production; potency relative to NECA=1
T1 construct: expressed in transfected cells; host or cells: Chinese hamster ovary (CHO) cells containing CRE/SPAP/HYG reporter elements
T1 sequence (P30542 1-326): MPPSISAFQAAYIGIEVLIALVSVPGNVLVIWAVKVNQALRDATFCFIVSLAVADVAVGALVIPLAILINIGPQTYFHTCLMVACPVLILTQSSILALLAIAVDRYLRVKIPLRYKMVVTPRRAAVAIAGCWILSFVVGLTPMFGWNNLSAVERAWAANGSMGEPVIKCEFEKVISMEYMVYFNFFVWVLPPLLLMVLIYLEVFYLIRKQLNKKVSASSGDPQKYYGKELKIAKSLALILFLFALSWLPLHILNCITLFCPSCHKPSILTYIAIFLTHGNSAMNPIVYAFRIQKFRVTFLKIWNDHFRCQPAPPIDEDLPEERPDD
Description: Agonist activity was measured in Chinese hamster ovary (CHO) cells containing the CRE/SPAP/HYG (CRE=cyclic AMP response element; HYG=hygromycin resistance; SPAP=secreted placental alkaline phosphatase) reporter gene elements, which upon stimulation of cAMP levels produced SPAP. A cell line was used, which was stably transfected with either the human adenosine A1 receptor or the human adenosine A3 receptor in addition to the above elements. Cells were plated out in 96-well plates in culture medium and incubated at 37° C. for 1 hour. […] All cells were then incubated for a further 5 hours at 37° C., and cooled to room temperature, after which a substrate for the phosphatase (para-nitrophenol phosphate, pNPP), which is converted by SPAP to a coloured reagent) was then added and the 96-well plates were read in a plate reader. From these readings, the concentration-dependence of the inhibition by the agonist for forskolin-stimulated SPAP production can be calculated.
(ECR=equipotent concentration ratio relative to NECA=1)

[2] = target: T2, human adenosine A3 receptor (Homo sapiens, UniProt P0DMS8); test: Reporter gene (CRE/SPAP) agonist assay in CHO cells, adenosine A3 receptor; settings: CHO cells with human A3 receptor; inhibition of forskolin-stimulated SPAP production; potency relative to NECA=1
T2 sequence (P0DMS8 1-318): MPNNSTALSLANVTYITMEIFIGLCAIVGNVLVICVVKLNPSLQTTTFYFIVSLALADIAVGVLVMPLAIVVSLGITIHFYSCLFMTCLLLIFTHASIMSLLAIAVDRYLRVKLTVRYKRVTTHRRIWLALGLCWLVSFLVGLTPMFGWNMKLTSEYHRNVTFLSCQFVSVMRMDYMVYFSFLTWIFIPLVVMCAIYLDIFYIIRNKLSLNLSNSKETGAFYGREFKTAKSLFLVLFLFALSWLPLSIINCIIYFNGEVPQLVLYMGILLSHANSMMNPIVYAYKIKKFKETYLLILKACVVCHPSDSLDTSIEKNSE

| A1 ECR (equipotent concentration ratio relative to NECA=1) [1] | A3 ECR (equipotent concentration ratio relative to NECA=1) [2] | melting point [°C] | SMILES |
| --- | --- | --- | --- |
| 24.10 | 284.5 | – | OCC(O)CNc1ncnc2c1ncn2[C@@H]1O[C@H](COC(F)(F)F)[C@@H](O)[C@H]1O (relative stereo) [Example 20, N-(rel-2,3-Dihydroxy-propyl)-5′-O-trifiuoromethyl-adenosine] |
| 8.70 | 7.7 | 74 to 76 | O[C@@H]1[C@H](O)[C@@H](COCC(F)(F)F)O[C@H]1n1cnc2c(NC3CCCC3)ncnc21 [Example 6, N-Cyclopentyl-5′-O-(2,2,2-trifluoro-ethyl)-adenosine] |
| 239.40 | – | – | O[C@@H]1[C@H](O)[C@@H](COCC(F)(F)F)O[C@H]1n1cnc2c(N[C@@H]3CCC[C@H]3O)ncnc21 [Example 8, N-(2R-Hydroxy-cyclopent-(R)-yl)-5′-O-(2,2,2-trifluoro-ethyl)-adenosine] |
| 298 | 19.7 | – | O[C@@H]1[C@H](O)[C@@H](COCC(F)(F)F)O[C@H]1n1cnc2c(Nc3ccc(F)cc3)ncnc21 [Example 9, N-(4-Fluoro-phenyl)-5′-O-(2,2,2-trifluoro-ethyl)-adenosine] |
| 11.1 | >276 | – | O[C@@H]1[C@H](O)[C@@H](COC(F)(F)F)O[C@H]1n1cnc2c(NC3CCSCC3)ncnc21 [Example 13, N-(Tetrahydro-thiopyran-4-yl)-5′-O-trifluoromethyl-adenosine] |
| 20.50 | 197.3 | – | O[C@@H]1[C@H](O)[C@@H](COC(F)(F)F)O[C@H]1n1cnc2c(Nc3ccc(F)c(F)c3)ncnc21 [Example 14, N-(3,4-Difluoro-phenyl)-5′-O-trifluoromethyl-adenosine] |
| 23.2 | – | – | O[C@@H]1[C@H](O)[C@@H](COC(F)(F)F)O[C@H]1n1cnc2c(Nc3cccc(F)c3)ncnc21 [Example 15, N-(3-Fluoro-phenyl)-5′-O-trifluoromethyl-adenosine] |
| 79.50 | >207 | – | O=S1(=O)CCC(Nc2ncnc3c2ncn3[C@@H]2O[C@H](COC(F)(F)F)[C@@H](O)[C@H]2O)CC1 [Example 16, N-(1,1-Dioxo-hexahydro-1δ6-thiopyran-4-yl)-5′-O-trifluoromethyl-adenosine] |
| 12.52 | >175 | – | CC(=O)NCCNc1ncnc2c1ncn2[C@@H]1O[C@H](COC(F)(F)F)[C@@H](O)[C@H]1O [Example 23, N-{2-[9-(3R,4S-Dihydroxy-5R-trifluoromethoxymethyl-tetrahydro-furan-2R-yl)-9H-purin-6-ylamino]-ethyl}-acetamide] |
| 32 | – | – | Cc1nc(NC2CCOCC2)c2ncn([C@@H]3O[C@H](COC(F)(F)F)[C@@H](O)[C@H]3O)c2n1 [Example 25, 2-Methyl N-(tetrahydro-pyran-4-yl)-5′-O-trifluoromethyl-adenosine] |

The next lines start with the molecule.

| SMILES | A1 ECR (equipotent concentration ratio relative to NECA=1) [1] | A3 ECR (equipotent concentration ratio relative to NECA=1) [2] | melting point [°C] |
| --- | --- | --- | --- |
| O[C@@H]1[C@H](O)[C@@H](COC(F)(F)F)O[C@H]1n1cnc2c(NC3CCOCC3)ncnc21 [Example 1, N-(Tetrahydro-pyran-4-yl)-5′-O-trifluoromethyladenosine] | 8.40 | >129 | – |
| O[C@@H]1[C@H](O)[C@@H](COC(F)(F)F)O[C@H]1n1cnc2c(NCCc3ccncc3)ncnc21 [Example 2, N-(2-Pyridin-4-yl-ethyl)-5′-O-trifluoromethyladenosine] | 185.5 | – | – |
| O[C@@H]1[C@H](O)[C@@H](COC(F)(F)F)O[C@H]1n1cnc2c(NC3CC4CCC3C4)ncnc21 (stereo partly drawn) [Example 3, N-(exo-Bicyclo[2.2.1]hept-2-yl)-5′-O-trifluoromethyl-adenosine] | – | 143.5 | – |
| Nc1ncnc2c1ncn2[C@@H]1O[C@H](COC(F)(F)F)[C@@H](O)[C@H]1O [Example 4, 5′-O-Trifluoromethyladenosine] | 80.7 | 81.6 | – |
| CNS(=O)(=O)CCNc1ncnc2c1ncn2[C@@H]1O[C@H](COC(F)(F)F)[C@@H](O)[C@H]1O [Example 5, 2-[9-(3R,4S-Dihydroxy-5R-trifluoromethoxymethyl-tetrahydro-furan-2R-yl)-9H-purin-6-ylamino]-ethanesulfonic Acid Methylamide] | 33.2 | >212 | – |
| O[C@@H]1[C@H](O)[C@@H](COC(F)(F)F)O[C@H]1n1cnc2c(N[C@H]3CCC[C@@H]3F)ncnc21 [Example 12, N-(2S-Fluoro-cyclopent-(S)-yl)-5′-O-trifluoromethyl-adenosine] | – | >226 | – |
| CC(C)(C)Nc1ncnc2c1ncn2[C@@H]1O[C@H](COC(F)(F)F)[C@@H](O)[C@H]1O [Example 17, N-tert-Butyl-5′-O-trifiuoromethyl-adenosine] | – | >207 | – |
| CCOC(=O)N1CCC(Nc2ncnc3c2ncn3[C@@H]2O[C@H](COC(F)(F)F)[C@@H](O)[C@H]2O)CC1 [Example 18, 4-[9-(3R,4S-Dihydroxy-5R-trifluoromethoxymethyl-tetrahydro-furan-2R-yl)-9H-purin-6-ylamino]-piperidine-1-carboxylic Acid Ethyl Ester] | 5.32 | >202 | – |
| O[C@@H]1[C@H](O)[C@@H](COC(F)(F)F)O[C@H]1n1cnc2c(N[C@H]3CCC[C@@H]3O)ncnc21 [Example 19, N-(2S-Hydroxy-cyclopent-(S)-yl)-5′-O-trifluoromethyl-adenosine] | – | >150 | – |
| O[C@@H]1[C@H](O)[C@@H](COC(F)(F)F)O[C@H]1n1cnc2c(N[C@@H]3CCOC3)ncnc21 [Example 21, N-(Tetrahydro-furan-3R-yl)-5′-O-trifluoromethyl-adenosine] | – | >175 | – |
| O[C@@H]1[C@H](O)[C@@H](COC(F)(F)F)O[C@H]1n1cnc2c(N[C@H]3CCOC3)ncnc21 [Example 22, N-(Tetrahydro-furan-3S-yl)-5′-O-trifluoromethyl-adenosine] | – | >63 | – |
| CCOC(=O)N1CCC(Nc2nc(C)nc3c2ncn3[C@@H]2O[C@H](COC(F)(F)F)[C@@H](O)[C@H]2O)CC1 [Example 24, 4-[9-(3R,4S-Dihydroxy-5R-trifluoromethoxymethyl-tetrahydro-furan-2R-yl)-2-methyl-9H-purin-6-ylamino]-piperidine-1-carboxylic Acid Ethyl Ester] | 51.70 | >134 | – |
